# Data as given in patent publication US20110009416A1, “PH INDEPENDENT FORMULATIONS OF 6-(5-CHLORO-2-PYRIDYL)-5-[(4-METHYL-1-PIPERAZINYL)CARBONYLOXY]-7-OXO-6,7-DIHYDRO-5H-PYRROLO[3,4-b]PYRAZINE” (SEPRACOR INC., priority 2009, published 2011).
# Experiment: Dissolution over time of uncoated 3 mg eszopiclone tablets (Hanson SR8-Plus apparatus, fiber optic UV at 305 nm)
# Format: physicochemical
# Protocol: Dissolution over time of eszopiclone free base compounded with various solid acids was compared to that of free base at body temperature (37° C.) in dissolution media at various pH values using Hanson Research SR8—Plus Dissolution Apparatus and C-Technologies Fiber Optic UV Probes at 305 nm (excipients subtracted at 410 nm). The dissolution media used were (a) pH 1 (0.1N HCl) 50 ml of conc HCl mixed in 6 L of water; (b) pH 4.5 acetate buffer (20 mM) 5.88 g of sodium acetate trihydrate dissolved in 6 L of water, pH adjusted to 4.5 with acetic acid; (c) pH 5.5 phosphate buffer (20 mM) 16.3 g of potassium dihydrogen phosphate in 6 L of water. pH adjusted to 5.5 with NaOH; (d) pH 6.8 phosphate buffer (20 mM) 16.3 g of potassium dihydrogen phosphate in 6 L of water. pH adjusted 6.8 with NaOH. A standard dissolution protocol was used. The standard solution (0.006 mg/mL of eszopiclone free base) was prepared by weighing a known amount (−20 mg) of the free base into a 100 mL volumetric flask. 10 mL of acetonitrile was added into the flask and sonicated until the solids dissolved completely. The solution was cooled to room temperature and made up to the 100 mL mark using media and mixed well. Dilute 3 mL to 100 mL using media. The tables were prepared by transferring 500 mL dissolution media into the 6 vessels. Blank readings were taken for all the probes using media. Standards were read for individual vessels. Probes were washed with media and then inserted back into each vessel. […] The dissolution program was started immediately and readings were taken at 305 nm for 60 min (every 1 min for 20 min and then every 10 min)
# The following tables display results of dissolution experiments in deionized (DI) water of uncoated tablets formed from 3 mg free base IR eszopiclone (with no more than 0.3% (R)-zopiclone) with various acids. […] The pH values of the media was measured using a pH paper, in-situ at various time points during the dissolution experiment run in deionized (DI) water of uncoated tablets formed from 3 mg free base IR eszopiclone with 12% L-malic acid. […]
compound,measurement,setting,value
"CN1CCN(C(=O)O[C@H]2c3nccnc3C(=O)N2c2ccc(Cl)cn2)CC1 [free base, [(9S)-8-(5-chloropyridin-2-yl)-7-oxo-2,5,8-triazabicyclo[4.3.0]nona-1,3,5-trien-9-yl]-4-methyl piperazine-1-carboxylate]",dissolution profile in water (in words),"in water, FIG. 2 and FIG. 4, up to one hour",slow and incomplete
same,dissolved at one hour,"in water, FIG. 4, one hour",less than 50%
same,dissolution profile at pH 1 (in words),"pH 1, FIG. 3",dissolve rapidly and completely
